Results on eleven compounds are retold here after patent US5602140A, “Purine derivatives and suppressants for inflammatory diseases” (Japan Energy Corporation, priority 1994, dated 1997).

Test [1] can be described thus: Scavenging of active oxygen / inhibitory effect against lipid peroxidation (oxidation of linolenic acid to conjugated diene by hydroxy radical, Fenton reaction). In kind it is biochemical. Conditions: linolenic acid 1.0 mM, absorbance at 234 nm. How it is done:
The inhibitory effect against oxidation of linolenic acid to conjugated diene due to hydroxy radical (. OH) formed by Fenton reaction was determined according to the method of Kharasch et al. (see J. Biol. Chem., 2.60, 10,645 (1985)). A predetermined concentration of FeCl2 solution was added to a mixture of water and DMSO containing predetermined amount of linolenic acid, NaCl, H2 O2, Lubrol and the rest compound to start the reaction. […] Then, the changes of absorbance at 234 nm due to the formation of conjugated diene in the reaction solutions were determined periodically. The inhibitory rate (%) was estimated from the differences between the test solutions and corresponding solutions without the test compound. When the difference of said reaction rate was 0 (zero), then the inhibitory rate was made 0%, and when the reaction rate was 0 (zero), then the inhibitory rate was made 100%.
The inhibitory rate was estimated for various concentrations of said test compounds and the 50%-inhibitory concentration (IC50) was regressively calculated. The preventive effect against lipid peroxidation was evaluated using IC50.

For test [2], the target named is TXA2 synthesis (crude TXA2 synthetase). In words: Inhibition of TXA2 synthesis (crude TXA2 synthetase, labeled arachidonic acid, RIA). In kind it is biochemical, human. As to conditions: for IC50: TXA2 formation, 37° C., 10 min. How it is done: Inhibitory effect against TXA2 synthesis was evaluated by the method shown below determining the formation of TXA2 as an arachidonic acid metabolite in the presence of purine derivatives of the present invention.
TXA2 (thromboxane A2) is reported to be synthesized by TXA2 synthetase in arachidonic acid cascade via a cyclic peroxide (PGH2) formed by cyclooxygenase system. Crude TXA2 synthetase was prepared by the following method in the present invention. Blood drawn from healthy volunteer was centrifuged at 200 G for 15 min. and the resulting supernatant was further centrifuged at 2,000 G for 10 min. to give precipitates. The precipitates were homogenized in 0.01M phosphate buffer and centrifuged at 1,000 G for 10 min. to give a supernatant. The resultant supernatant was used as a crude TXA2 synthetase in the following processes. […] The reaction solution was incubated at 37° C. for 10 min. and TXA2 formed in the reaction mixture was determined by RIA method using a commercially available kit (Amersham Co., Ltd., RIA kit). The inhibitory rate was calculated from the difference between the determined amount of formed TXA2 and that carried out in the absence of the test compound. When the difference of formed amount of TXA2 was 0 (zero), then the inhibitory rate was made 0% and when the formation of TXA2 was equal to that of solvent control without TXA2 synthetase, then the inhibitory rate was made 100%.
The inhibitory rate was estimated for various concentrations of said test compounds and the concentration of 50%-inhibition (IC50) was regressively calculated. The inhibitory effect against TXA2 formation was evaluated using IC50.

In test [3] the test system is platelet aggregation induced by PAF. Kind of test: Anti-PAF activity: inhibition of platelet aggregation induced by PAF in platelet rich plasma. Format: cell-based, rabbit. As to conditions: Oryctolagus cuniculus, PAF 10 nM, test compound concentration 30 μM, read-out: Inhibitory rate. Here is the method:
Anti-PAF activity of purine derivatives of the present invention was evaluated in the inhibition of platelet aggregation induced by PAF (platelet activation factor).
In the present evaluation, blood was drawn from rabbit and 9 volumes of the blood was added with 1 volume of 3.8% sodium citrate solution, centrifuged at 2,000 rpm for 3 min. to give platelet rich plasma (PRP). In a platelet aggregation determination apparatus, 200 μl of the PRP solution and 25 μl of a solution prepared from a predetermined amount of the test compound were mixed and incubated for 2 min. The incubated mixture was added with 25 μl of a solution containing a predetermined amount of PAF to cause platelet aggregation induced by PAF in the test solution. A concentration of PAF was 10 nM in the test solution. The inhibitory rate against platelet aggregation induced by PAF was calculated from the changes of transmission accompanied by the platelet aggregation.
Various concentrations of the test compounds in the test solution were selected to investigate the relationship between the concentration and the inhibitory rate for the evaluation of inhibitory rate of platelet aggregation induced by PAF. […] The inhibitory rate for the positive control compound, CV-3988 (rac-3-(N-n-octadecylcarbamoyl)-2-methoxypropyl-2-thiazolium ethyl phosphate) is also shown in Table 4.

The next test has as its system endotoxin induced death. Kind of test: Activity for the endotoxin (LPS) induced death in mice. Format: in vivo, male ICR mice. As to conditions: for Survival rate: oral twice (30 min before and 8 hrs after LPS 15 mg/kg i.p.), within 4 days, control 50%. How it is done: (Activity for the endotoxin induced death) Activity of purine derivatives of the present invention for endothelial cell damage by endotoxin was evaluated by the following method.
In the present method of evaluation, endotoxin caused endothelial cell damage was induced by intraperitoneal administration of LPS (E. coli 055:B5) to male ICR mice. The body weight of test mice was determined beforehand and a dose of 15 mg/kg (body weight) of LPS was predetermined. After administration of LPS, the difference between the number of dead mice induced by endotoxin within 4 days and the total number of mice was divided by the total number of mice to give the survival rate. The dose per body weight of test compound was predetermined and orally administered at 30 min. before induction (LPS administration) and at 8 hrs. after the induction, twice in total. The test compounds were suspended in 0.5% CMC--Na aqueous solution.
Various doses of the test compounds per body weight were selected to investigate the relationship between the dose and survival rate for the evaluation of inhibitory effect against endotoxin induced death. […] While, control group was given the same dose of 0.5% CMC--Na aqueous solution only. […] That is, the inhibitory effect of the compound of the present invention against endotoxin induced death was clearly observed.

In test [4] the test system is nephrotoxin-induced nephritis. Kind of test: Effect on nephrotoxin-induced nephritis (anti-GBM serum) in rats. In kind it is in vivo, male SD rats. Conditions: for Serum parameter BUN / Serum parameter Total cholesterol / Serum parameter triglyceride / Urinary protein One day before induction / Urinary protein Day 5 after induction / Urinary protein Day 3 after induction: oral once daily, means ± S.E.; for Serum parameter BUN: control 27.6 ± 0.9; for Serum parameter Total cholesterol: control 75 ± 3; for Serum parameter triglyceride: control 161 ± 25; for Urinary protein One day before induction: control 12.2 ± 1.1; for Urinary protein Day 5 after induction: control 72.1 ± 25.7; for Urinary protein Day 3 after induction: control 74.1 ± 25.6. How it is done: Inhibitory effect of purine derivatives of the present invention against nephrotoxin-induced nephritis was evaluated by the following method.
In the present method of evaluation, nephrotoxin-induced nephritis was induced by administration of anti-GBM (glomerular basement membrane) serum to 9-week old male SD rats. The anti-GBM serum was prepared according to a known method (see Kidney and Dialysis (Jin to Toseki) 31, Special Issue, p. 202-206 (1991), Pub. by Tokyo Igakusha Ltd., Tokyo, Japan). Anti-GBM serum was intravenously administered at an induction dose of 0.15 ml/300 g (body weight). The predetermined dose per body weight of the test compound was suspended in 0.5% CMC--Na aqueous solution and orally administered once daily for consecutive 7 days starting from one day before induction (administration of anti-GBM serum). While, control group was given the same dose of 0.5% CMC--Na aqueous solution only. During the administration period of the test compound, urinary protein was measured every 24 hrs. Seven days after the induction, blood was drawn to prepare serum sample by a conventional method, and BUN, total cholesterol and triglyceride were measured.
Various doses of the test compounds per body weight were selected to investigate the relationship between the dose and urinary protein for the evaluation of inhibitory effect against nephrotoxin-induced nephritis.

Setting [5] is: dose 30 mg/kg, day 7 after induction.
[6] abbreviates: dose 100 mg/kg, day 7 after induction, *p < 0.05.

On to `COc1nc(-c2cc(C(C)(C)C)c(O)c(C(C)(C)C)c2)nc2nc[nH]c12` [Example 1, 2-(3,5-di-tert-butyl-4-hydroxyphenyl)-6-methoxypurine], for which the IC50 in test [1] was determined as 3.5 µM; in test [2], 0.963 µM. For the same compound, the inhibition at 30 µM in test [3] is 46%.

As to `CCCOc1nc(-c2cc(C(C)(C)C)c(O)c(C(C)(C)C)c2)nc2nc[nH]c12` [Example 2, 2-(3,5-di-tert-butyl-4-hydroxyphenyl)-6-n-propoxypurine], the IC50 in test [1] worked out at 3.4 µM; in test [2], 0.157 µM. Also, in test [2], the “inhibitory effect against formation of TXA2 (in words)” value is reported as “remarkable inhibitory effect against formation of TXA2”. For the same compound, the inhibition at 30 µM in test [3] was 57%. Also, the Survival rate in the test with endotoxin induced death (dose 100 mg/kg) is recorded as 68%; in the test on endotoxin induced death (dose 300 mg/kg) it was 75%. Also, in the test with endotoxin induced death (oral, 100 and 300 mg/kg), the “effect on survival / endotoxin induced death (in words)” value is recorded as “increase in survival rate with the increase of dose was clearly observed”. Moreover, the “Serum parameter BUN” value is 26.9 ± 0.8 mg/dL in test [4] (setting [5]) and 23.6 ± 1.6 mg/dL in test [4] (setting [6]). For the same compound, the “Serum parameter Total cholesterol” value in test [4] (setting [5]) was 72 ± 6 mg/dL; in test [4] (setting [6]), 66 ± 2 mg/dL. For the same compound, the Serum parameter triglyceride was found to be 125 ± 20 mg/dL in test [4] (setting [5]) and 60 ± 4 mg/dL in test [4] (dose 100 mg/kg, day 7 after induction, **p < 0.01). Moreover, the “Urinary protein One day before induction” value amounted to 10.5 ± 0.8 mg/day in test [4] (dose 30 mg/kg) and 12.2 ± 2.5 mg/day in test [4] (dose 100 mg/kg). In addition, the “Urinary protein Day 5 after induction” value in test [4] (dose 30 mg/kg) was found to be 52.8 ± 16.7 mg/day; in test [4] (dose 100 mg/kg, *p < 0.05), 14.3 ± 1.0 mg/day. Moreover, the “Urinary protein Day 3 after induction” value in test [4] (dose 30 mg/kg) is on record as 49.0 ± 16.7 mg/day; in test [4] (dose 100 mg/kg, *p < 0.05) it was 14.5 ± 1.7 mg/day. Further, the “inhibitory effect against increase of urinary protein (in words)” value in test [4] (oral, 30 and 100 mg/kg) is reported as “dose dependent inhibitory effect against increase of urinary protein”. Further, the “concentrations of serum BUN, total cholesterol and triglyceride (in words)” value in test [4] (oral, 30 and 100 mg/kg, day 7 after induction) was “dose dependent decrease”.

Consider `CCCCOc1nc(-c2cc(C(C)(C)C)c(O)c(C(C)(C)C)c2)nc2nc[nH]c12` [Example 3, 6-n-butoxy-2-(3,5-di-tert-butyl-4-hydroxyphenyl)purine], for which half-maximal inhibition in test [1] (IC50) required 3.5 µM. For the same compound, in test [2], the “inhibitory effect against formation of TXA2 (in words)” value is listed as “remarkable inhibitory effect against formation of TXA2” and 0.174 µM corresponded to half-maximal inhibition (IC50). In addition, the inhibition at 30 µM in test [3] is 78%.

As to `CCCCCCOc1nc(-c2cc(C(C)(C)C)c(O)c(C(C)(C)C)c2)nc2nc[nH]c12` [Example 4, 2-(3,5-di-tert-butyl-4-hydroxyphenyl)-6-n-hexyloxypurine], the IC50 in test [1] turned out to be 3.7 µM; in test [2], 0.942 µM. In test [3], the inhibition at 30 µM was determined as 61%.

Regarding `CCCCCCCCOc1nc(-c2cc(C(C)(C)C)c(O)c(C(C)(C)C)c2)nc2nc[nH]c12` [Example 5, 2-(3,5-di-tert-butyl-4-hydroxyphenyl)-6-n-octyloxypurine], half-maximal inhibition in test [1] (IC50) required 5.4 µM. In addition, the inhibition at 30 µM in test [3] came to 15%.

In the case of `CC(C)(C)c1cc(-c2nc(OCCc3ccccc3)c3[nH]cnc3n2)cc(C(C)(C)C)c1O` [Example 6, 2-(3,5-di-tert-butyl-4-hydroxyphenyl)-6-phenethyloxypurine], the IC50 in test [1] was 3.5 µM; in test [2], 0.681 µM. In addition, in test [3], the inhibition at 30 µM is 35%.

Take `CC(C)(C)c1cc(-c2nc(O)c3[nH]cnc3n2)cc(C(C)(C)C)c1O` [Example 7, 2-(3,5-di-tert-butyl-4-hydroxyphenyl)-6-hydroxypurine]: the midpoint of inhibition in test [1], the IC50, lay at 3.4 µM. In addition, in test [3], the inhibition at 30 µM is 5%.

`CC(C)(C)c1cc(-c2nc(OCCCC(=O)O)c3[nH]cnc3n2)cc(C(C)(C)C)c1O` [Example 8, 6-(3-carboxy-n-propoxy)-2-(3,5-di-tert-butyl-4-hydroxyphenyl)purine]: the IC50 in test [1] was 4 µM. Besides, the inhibition at 30 µM in test [3] came out at 5%.

For the compound `CC(C)(C)c1cc(-c2nc(OCCCCCC(=O)O)c3[nH]cnc3n2)cc(C(C)(C)C)c1O` [Example 9, 6-(5-carboxy-n-pentyloxy)-2-(3,5-di-tert-butyl-4-hydroxyphenyl)purine], 3.6 µM corresponded to half-maximal inhibition in test [1] (IC50). Besides, in test [3], the inhibition at 30 µM is 2%.

Turning to `CC(C)(C)c1cc(-c2nc(OCCCCCCCC(=O)O)c3[nH]cnc3n2)cc(C(C)(C)C)c1O` [Example 10, 6-(7-carboxy-n-heptyloxy)-2-(3,5-di-tert-butyl-4-hydroxyphenyl)purine], in test [1], the IC50 came out at 3.7 µM. Also, in test [3], the inhibition at 30 µM was determined as 4%.

The compound `CC(C)(C)c1cc(-c2nc(OCc3ccc(C(=O)O)cc3)c3[nH]cnc3n2)cc(C(C)(C)C)c1O` [Example 11, 6-(4-carboxybenzyloxy)-2-(3,5-di-tert-butyl-4-hydroxyphenyl)purine] gave an IC50 in test [1] of 3.9 µM. In test [3], the inhibition at 30 µM was 53%.
